Target: T1, purified pig brain PMCA (brainPMCA)
T1 construct: gene ATP2B1; native, purified from pig brain synaptosomal plasma membrane vesicles, delipidated, reconstituted in PS or PC
Experiment: quenching of intrinsic Trp fluorescence, Stern-Volmer
Assay type: binding, Sus scrofa
Details: reconstituted in PS, no tau; pH 7.4, 25 °C, 100 mM KCl, 2 mM MgCl2, 3.16 µM free Ca2+, 1 mM ATP; unreliable (extrapolated: titrated only up to 10 µM MB)
Excerpt: quenching of intrinsic Trp fluorescence, Stern-Volmer on purified pig brain PMCA (brainPMCA)

`CN(C)c1ccc2nc3ccc(=[N+](C)C)cc-3sc2c1` [Methylene blue] was tested, and the “Kd” value was 52.6 ± 2.5 µM.
